# According to patent publication US9133224B2, “Macrocyclic kinase inhibitors” (OSI Pharmaceuticals, LLC, priority 2010, dated 2015):
# Like-named read-outs stand apart in the source and are kept apart here.
# Columns and labels:
# [1] = target: T1, GST-tagged full-length FAK enzyme (PTK2) (Homo sapiens, UniProt Q05397); test: Biochemical Omnia Assay (FAK)
# T1 construct: GST-tagged full-length FAK enzyme (PTK2, Invitrogen PV4085); GST; purchased Invitrogen PV4085
# Experimental: Biochemical Omnia Assay Protocol
# The Omnia Assay (Invitrogen) has been optimized for GST-tagged full-length FAK enzyme (PTK2, Invitrogen PV4085).
# All compound concentrations were assayed in duplicate. Initial compound dilutions were prepared at 100× concentration in 100% DMSO from a 10 mM stock solution. Compounds were further diluted 1:25 in assay buffer resulting in a 4× concentrated solution.
# In running the assay, 5 μL of the above 4× concentrated compound solution (or 4% DMSO for positive controls) was added to the assay plate followed by 5 μL of a solution containing peptide (40 μM) and ATP (200 μM) in assay buffer. The reaction was initiated by the addition of 10 μL of FAK (50 nM) in assay buffer, or assay buffer alone for negative controls. The increase in fluorescence due to peptide phosphorylation was monitored continuously as a function of time using a Spectramax M5 plate reader (Molecular Devices) equipped with SoftMax Pro 5.2 software.
# IC50 values were determined from the slopes of the linear progress curves by non-linear curve-fitting using GraphPad Prism 5 (GraphPad Software, Inc.).
# FAK = target: T2, FAK (Homo sapiens, UniProt Q05397); test: Cell-based capture ELISA for inhibition of FAK autophosphorylation [pY397] in U87MG cells
# T2 construct: endogenous in cells; host or cells: U87MG glioblastoma cells (ATCC HTB-14)
# Experimental: Cell-Based Assays for Inhibition of FAK Autophosphorylation: MiaPaCa2 and U87MG
# The ability of compounds to inhibit FAK autophosphorylation was determined in a cell-based capture ELISA assay using U87MG glioblastoma cells (ATCC, Cat # HTB-14) and the FAK [pY397]ELISA kit from Invitrogen (KHO0441). The assay determines the ability of compounds to block endogenous autophosphorylation of FAK stimulated by fibronectin. Cells plated on fibronectin coated 96-well plate were incubated with compounds at various concentrations in the complete growth medium for 2 h. Cell lysates were then prepared and FAK protein was captured onto a FAK antibody-coated 96-well ELISA plate. The phosphotyrosine content of FAK protein was then monitored by quantitation of degree of binding of an antibody that recognizes only the phosphorylated FAK at Y397 within the captured protein.
# Reagents Provided in Biosource FAK [pY397]
# Cultures of U87MG cells growing in MEM (Earles) containing non-essential amino acids, sodium pyruvate (1 mM), […] (1%) and 10% fetal bovine serum were detached by trypsin-EDTA and suspended in cell growth medium. Cells were then plated onto fibronectin (600 ng/well)-coated 96-well flat bottom plates at 1.7×10^4 cells per well in 60 uL cell growth medium and incubated overnight at 37° C. in a CO2 incubator.
# Compound dilutions were prepared from 10 mM DMSO stocks by dilution in cell growth medium, the final concentration of DMSO in the assay being 0.6%. […] The cells were then incubated with compounds at 37° C. for 2 h. The medium was removed by aspiration and cells were lysed by addition of 20 uL of ice-cold cell lysis buffer per well. The plates were kept on ice for 20 min and 50 uL of standard diluent was added to each well. 50 uL of cell lysate from each well was transferred to respective wells in an assay plate and 50 uL of detection antibody was added to all wells except H1-H6 which were no antibody control wells. Capture assay plates were incubated overnight in a cold room.
# Following incubation of the cell lysates and detection antibodies in the ELISA plate, the wells were washed 4 times with 120 uL of wash buffer (1×), then 100 uL of diluted HRP conjugated antibody (1:100 dil in diluent) was added to each well, and the plate was incubated at RT for 30 min. The wells were then washed for 4 times with 120 uL of wash buffer (1×) and 100 uL of chromogen was added to each well and incubated in the dark at RT for 5-10 min. 100 uL of stop solution was added to each well and the absorbance measured at 450 nm, 0.1 s.
# Comparison of the assay signals obtained in the presence of compound with those of positive and negative controls (cells with no compound and no detection antibody being added), allows degree of inhibition of phospho-FAK [Y397] to be determined over a range of compound concentrations. […] The assay as described above was modified to determine the effect of inclusion of 50% (v/v) mouse or human plasma. In this assay, the compound plate was prepared as 2× concentration in 100 uL of 100% mouse or human plasma, and 60 uL of this was added to 60 uL of culture medium and incubated at 37° C. incubator for 2 h. The rest of the assay was carried out as described above.
# [2] = mean IC50, [ATP] = 50uM, read-out: FAK Activity Biochemical OMNIA, [ATP] = 50uM
# [3] = 50% (v/v) human plasma, mean IC50, read-out: FAK Activity Mechanistic (U87MG) HP
# [4] = 50% (v/v) mouse plasma, mean IC50, read-out: FAK Activity Mechanistic (U87MG) MP
# [5] = no plasma present, mean IC50, read-out: FAK Activity Mechanistic (U87MG) NP
# T1 sequence (Q05397 whole entry): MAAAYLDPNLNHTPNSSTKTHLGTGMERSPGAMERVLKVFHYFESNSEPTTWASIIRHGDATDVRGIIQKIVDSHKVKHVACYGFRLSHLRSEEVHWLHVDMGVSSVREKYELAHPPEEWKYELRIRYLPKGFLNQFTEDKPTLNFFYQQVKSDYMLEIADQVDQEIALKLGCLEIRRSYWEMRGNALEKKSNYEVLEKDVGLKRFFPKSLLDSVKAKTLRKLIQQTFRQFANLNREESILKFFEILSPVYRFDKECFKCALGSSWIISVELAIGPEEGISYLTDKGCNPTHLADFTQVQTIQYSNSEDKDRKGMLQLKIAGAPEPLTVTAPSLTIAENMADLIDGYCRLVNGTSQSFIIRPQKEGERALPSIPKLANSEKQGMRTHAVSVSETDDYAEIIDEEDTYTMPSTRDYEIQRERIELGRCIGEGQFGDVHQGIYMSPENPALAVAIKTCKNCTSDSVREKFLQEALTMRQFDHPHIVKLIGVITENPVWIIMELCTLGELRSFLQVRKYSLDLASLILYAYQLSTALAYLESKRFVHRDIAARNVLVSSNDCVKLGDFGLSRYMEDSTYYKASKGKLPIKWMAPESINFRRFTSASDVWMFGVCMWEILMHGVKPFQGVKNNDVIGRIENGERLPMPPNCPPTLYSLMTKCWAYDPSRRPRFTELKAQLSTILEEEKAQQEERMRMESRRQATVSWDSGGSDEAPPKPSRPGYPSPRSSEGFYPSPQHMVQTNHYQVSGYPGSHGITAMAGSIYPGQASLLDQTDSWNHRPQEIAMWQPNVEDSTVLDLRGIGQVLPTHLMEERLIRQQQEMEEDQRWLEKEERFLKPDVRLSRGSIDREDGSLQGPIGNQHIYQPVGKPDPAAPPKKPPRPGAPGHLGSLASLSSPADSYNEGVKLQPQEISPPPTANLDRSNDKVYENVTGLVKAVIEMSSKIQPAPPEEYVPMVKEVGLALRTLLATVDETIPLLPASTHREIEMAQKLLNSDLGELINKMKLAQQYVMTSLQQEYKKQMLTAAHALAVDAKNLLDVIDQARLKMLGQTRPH
# T2 sequence (Q05397 whole entry): as above
Structure (SMILES),"IC50 [1, 2] [µM]",IC50 (FAK; [3]) [µM],IC50 (FAK; [4]) [µM],IC50 (FAK; [5]) [µM],IC50 [1] [µM]
"CNC(=O)c1nc2ccc1Nc1nc(ncc1C(F)(F)F)Nc1ccc(cc1OC)CP(=O)(O)OCCCn1cc-2cn1 [Example 65, 10-hydroxy-14-methoxy-N-methyl-20-(trifluoromethyl)-9-oxa-4,5,16,18,22,25,28-heptaaza-10-phosphapentacyclo[21.2.2.2^12,15.1^2,5.1^17,21]hentriaconta-1(25),2(31),3,12,14,17(28),18,20,23,26,29-undecaene-24-carboxamide 10-oxide]",< 0.4,> 4,> 4,> 4,–
"CCOP1(=O)Cc2ccc(c(Cl)c2)Nc2ncc(C(F)(F)F)c(n2)Nc2ccc(nc2C(=O)NC)-c2cnn(c2)CC2(COC2)CO1 (single isomer, unassigned) [Example 58A]",–,0.4 to 4,–,< 0.4,< 0.4
"CCOP1(=O)Cc2ccc(c(OC)c2)Nc2ncc(C(F)(F)F)c(n2)Nc2ccc(nc2C(=O)NC)-c2cnn(c2)CC(F)(F)CO1 (single isomer, unassigned) [Example 59B]",–,0.4 to 4,–,0.4 to 4,< 0.4
CCOP1(=O)Cc2ccc(c(OC)c2)Nc2ncc(C(F)(F)F)c(n2)Nc2ccc(cc2C(=O)NC)-c2cnn(c2)CCCO1 (racemic) [Example 4],–,< 0.4,–,< 0.4,< 0.4
CCOP1(=O)Cc2ccc(cc2)Nc2ncc(C(F)(F)F)c(n2)Nc2ccc(cc2C(=O)N(C)C)-c2cnn(c2)CCCO1 (racemic) [Example 11],–,0.4 to 4,–,< 0.4,< 0.4
"CNC(=O)c1nc2ccc1Nc1nc(ncc1C(F)(F)F)Nc1ccc(cc1OC)CP(=O)(C(C)C)OCCCn1cc-2cn1 (single isomer, unassigned) [Example 68A]",< 0.4,0.4 to 4,0.4 to 4,< 0.4,–
CCOP1(=O)Cc2ccc(c(OC)c2)Nc2ncc(C(F)(F)F)c(n2)Nc2ccc(nc2C(=O)NC)-c2cn(nc2OC)CCCO1 (racemic) [Example 48],–,< 0.4,0.4 to 4,< 0.4,< 0.4
CCOP1(=O)Cc2ccc(c(OC)c2Cl)Nc2ncc(C(F)(F)F)c(n2)Nc2ccc(nc2C(=O)NC)-c2cnn(c2)CCCO1 (racemic) [Example 54],–,0.4 to 4,–,< 0.4,< 0.4
"CCOP1(=O)Cc2ccc(c(Cl)c2)Nc2ncc(C(F)(F)F)c(n2)Nc2ccc(nc2C(=O)NC)-c2cnn(c2)CCCO1 (single isomer, unassigned) [Example 24A]",< 0.4,> 4,0.4 to 4,< 0.4,–
CCOP1(=O)Cc2ccc(c(OC)c2)Nc2ncc(C(F)(F)F)c(n2)Nc2ccc(c3c2C(=O)N(C)C3)-c2cnn(c2)CCCCO1 (racemic) [Example 17],< 0.4,< 0.4,–,< 0.4,–
CCOP1(=O)Cc2ccc(c(OC)c2)Nc2ncc(C(F)(F)F)c(n2)Nc2ccc(nc2C(=O)NC)-c2cnn(c2)C(C)(C)CCO1 (racemic) [Example 50],< 0.4,< 0.4,–,< 0.4,–
"CCOP1(=O)Cc2cc(OC)c(cc2Cl)Nc2ncc(C(F)(F)F)c(n2)Nc2ccc(nc2C(=O)NC)-c2cnn(c2)CCCO1 (single isomer, unassigned) [Example 56A]",–,> 4,0.4 to 4,< 0.4,< 0.4
CCOP1(=O)Cc2ccc(c(Cl)c2)Nc2ncc(C(F)(F)F)c(n2)Nc2ccc(nc2C(=O)NC)-c2cnn(c2)CC2(COC2)CO1 (racemic) [Example 58],–,< 0.4,–,< 0.4,< 0.4
CCOP1(=O)Cc2ccc(cc2)Nc2ncc(C(F)(F)F)c(n2)Nc2ccc(nc2C(=O)NC)-c2cnn(c2)CC(C)CO1 (mixture of isomers) [Example 21],< 0.4,< 0.4,–,< 0.4,–
CCOP1(=O)Cc2ccc(c(OC)c2)Nc2ncc(C(F)(F)F)c(n2)Nc2ccc(nc2C(=O)NC)-c2cnn(c2)CCCCO1 (racemic) [Example 15],–,< 0.4,–,< 0.4,< 0.4
"CCOP1(=O)Cc2ccc(c(OC)c2)Nc2ncc(C(F)(F)F)c(n2)Nc2ccc(nc2C(=O)NC)-c2cnn(c2C)CCCO1 (single isomer, unassigned) [Example 35A]",< 0.4,0.4 to 4,–,< 0.4,–
CCOP1(=O)Cc2ccc(c(OC)c2)Nc2ncc(C(F)(F)F)c(n2)Nc2ccc(nc2C(=O)NC)-c2cn(nc2C)CCCO1 (racemic) [Example 34],< 0.4,< 0.4,–,< 0.4,–
CCNC(=O)c1cc2ccc1Nc1nc(ncc1C(F)(F)F)Nc1ccc(cc1OC)CP(=O)(OCC)OCCCn1cc-2cn1 (racemic) [Example 9],–,< 0.4,0.4 to 4,< 0.4,< 0.4
CCOP1(=O)Cc2ccc(c(OC)c2)Nc2ncc(C(F)(F)F)c(n2)Nc2ccc(nc2C(=O)NC)-c2cc(C(=O)N(C)C)n(c2)CCCO1 (racemic) [Example 41],–,< 0.4,–,< 0.4,< 0.4
CCOP1(=O)Cc2cc(OC)c(cc2Cl)Nc2ncc(C(F)(F)F)c(n2)Nc2ccc(nc2C(=O)NC)-c2cnn(c2)CC2(COC2)CO1 (racemic) [Example 57],–,0.4 to 4,–,< 0.4,< 0.4
CCOP1(=O)Cc2ccc(c(OC)c2)Nc2cc(c(C(F)(F)F)cn2)Nc2ccc(nc2C(=O)NC)-c2cnn(c2)CCCO1 (racemic) [Example 36],–,< 0.4,0.4 to 4,< 0.4,< 0.4
"CCOP1(=O)Cc2ccc(c(OC)c2)Nc2ncc(C(F)(F)F)c(n2)Nc2ccc(nc2C(=O)NC)-c2cn(nc2Cl)CCCO1 (single isomer, unassigned) [Example 49A]",< 0.4,> 4,0.4 to 4,< 0.4,–
CCOP1(=O)Cc2ccc(c(OC)c2)Nc2ncc(C(F)(F)F)c(n2)Nc2ccc(c(Cl)c2C(=O)NC)-c2cnn(c2)CCCO1 (racemic) [Example 28],–,–,> 4,0.4 to 4,< 0.4
"CCNC(=O)c1nc2ccc1Nc1nc(ncc1C(F)(F)F)Nc1ccc(cc1OC)CP(=O)(OCC)OCC1(COC1)Cn1cc-2cn1 (single isomer, unassigned) [Example 45A]",–,0.4 to 4,–,< 0.4,< 0.4
CCOP1(=O)Cc2ccc(c(OC)c2)Nc2ncc(C(F)(F)F)c(n2)Nc2cc(F)c(c3c2C(=O)N(C)C3)-c2cnn(c2)CCCO1 (racemic) [Example 31],–,–,–,< 0.4,< 0.4
CCOP1(=O)Cc2ccc(c(OC)c2)Nc2ncc(C(F)(F)F)c(n2)Nc2ccc(c3c2C(=O)N(C)C3)-c2cnn(c2)C[C@H](O)CO1 (mixture of isomers) [Example 5],–,< 0.4,–,< 0.4,< 0.4
